Values quoted from earlier work as cited in US20230168217A1, “Test strip for the detection of neutral analytes in a sample” (priority 2020, published 2023).
“And” between values parts separate entries of the source, which are not always exact repeats. Equal values may be shown once. Read-outs that look alike come from different tables or passages of the source.

Experiments:
[1] = previously reported
[2] = not given; remark: listed apart in the source

SMILES | concentrations in fatal cases of poisoning | Protein bound fractions [1] | Serum levels predicting hepatotoxicity ([2]; 4 hours postingestion) | Serum levels predicting hepatotoxicity ([2]; 24 h post-ingestion)
COc1cccc(C2(O)CCCCC2CN(C)C)c1 (centres unmarked) [tramadol] | ~3.8 µM |  |  | 
CN1CC[C@]23c4c5ccc(O)c4O[C@H]2[C@@H](O)C=C[C@H]3[C@H]1C5 [morphine] | approximately 1.75 µM |  |  | 
CC(=O)Nc1ccc(O)cc1 [paracetamol] |  | 20-25% | ≥ 200 µg/ml and ≥ 1.323 mM | ≥ 6.25 µg/mL and ≥ 43.1 µM
